{"source": "patent US20250297244A1", "about": "“COMPOSITIONS AND METHODS FOR THE DIAGNOSIS AND TREATMENT OF SEVERE COVID 19 AND OTHER IN[…]” (THE CHILDREN'S HOSPITAL OF PHILADELPHIA, priority 2022, published 2025)", "key": {"[1]": {"molecular_target": "thymidylate synthase (TS) (Homo sapiens, UniProt P04818)", "sequence (P04818 whole entry, species assumed)": "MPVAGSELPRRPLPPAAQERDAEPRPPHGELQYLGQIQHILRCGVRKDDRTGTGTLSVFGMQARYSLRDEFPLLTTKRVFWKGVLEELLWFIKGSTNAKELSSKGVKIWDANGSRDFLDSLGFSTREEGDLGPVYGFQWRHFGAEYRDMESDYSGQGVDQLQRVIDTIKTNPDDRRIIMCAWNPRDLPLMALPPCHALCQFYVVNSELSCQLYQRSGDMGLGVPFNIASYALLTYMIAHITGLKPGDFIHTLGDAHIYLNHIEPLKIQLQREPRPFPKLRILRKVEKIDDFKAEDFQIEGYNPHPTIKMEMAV", "details": "in vitro studies; cited from earlier work"}, "[2]": {"molecular_target": "dihydrofolate reductase (DHFR) (Homo sapiens, UniProt P00374)", "sequence (P00374 whole entry, species assumed)": "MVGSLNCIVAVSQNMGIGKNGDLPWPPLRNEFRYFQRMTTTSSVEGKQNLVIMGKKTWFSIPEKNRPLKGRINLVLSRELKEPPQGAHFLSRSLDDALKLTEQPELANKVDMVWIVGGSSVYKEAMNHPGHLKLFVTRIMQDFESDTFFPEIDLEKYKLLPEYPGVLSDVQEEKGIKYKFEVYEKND", "details": "in vitro studies; cited from earlier work"}, "murine Th1 cells": {"tested_on": "murine Th1 cells", "assay": "IFNg production by murine Th1 cells after in vitro activation", "assay_type": "cell-based", "details": "low doses; anti-CD3+anti-CD28 beads for 6 hours", "procedure": "(§1) FIGS. 14A-14B. Dose-dependent effect of lometrexol on IFNg production by murine Th1 cells (FIG. 14A) and IL-4 production by murine Th2 cells (FIG. 14B) following in vitro activation with anti-CD3+anti-CD28 beads for 6 hours."}, "murine Th2 cells": {"tested_on": "murine Th2 cells", "assay": "IL-4 production by murine Th2 cells after in vitro activation", "assay_type": "cell-based", "details": "low doses; anti-CD3+anti-CD28 beads for 6 hours", "procedure": "as §1"}, "[3]": {"tested_on": "human tonsillar organoids", "assay": "in vitro human tonsillar organoid model of T cell-dependent germinal center B cell differentiation", "assay_type": "cell-based"}, "human CD4+ T cells": {"tested_on": "human CD4+ T cells", "assay": "proliferation of activated human CD4+ T cells (anti-CD3+anti-CD28 beads, CFSE flow cytometry)", "assay_type": "cell-based", "details": "activated in vitro for 72 hours with anti-CD3+anti-CD28 beads", "procedure": "FIG. 13. […] Human CD4+ T cells were activated in vitro for 72 hours using anti-CD3+anti-CD28 beads, and cell division was monitored by flow cytometry using CFSE, and the number of daughter cells generated was determined."}}, "note": "“Also recorded” adds a separate entry of the source.", "data": [{"smiles": "Nc1nc2[nH]cc(CCc3ccc(C(=O)N[C@@H](CCC(=O)O)C(=O)O)cc3)c2c(=O)[nH]1", "note": "[pemetrexed]", "values": [{"measurement": "inhibition of thymidylate synthase (TS)", "setting": "[1]", "result": "inhibits"}, {"measurement": "inhibition of dihydrofolate reductase (DHFR)", "setting": "[2]", "result": "inhibits"}]}, {"smiles": "Nc1nc2c(c(=O)[nH]1)C[C@@H](CCc1ccc(C(=O)N[C@@H](CCC(=O)O)C(=O)O)cc1)CN2", "note": "[lometrexol]", "values": [{"measurement": "production of IFNγ from Th1 cells", "setting": "murine Th1 cells", "result": "at low doses enhances"}, {"measurement": "production of IL-4 from Th2 cells", "setting": "murine Th2 cells", "result": "at low doses enhances"}, {"measurement": "CD27+CD38+ GCB cell plasmablast differentiation / plasmablast frequency", "setting": "[3]; day 7 of culture, lometrexol added after 48 hours, three tonsil donors", "result": "abrogated plasmablast differentiation in a dose-dependent manner; also recorded: Plasmablast frequency diminishment"}, {"measurement": "B or T cell survival (viability)", "setting": "[3]; day 7 tonsillar organoids", "result": "without affecting"}, {"measurement": "TFH frequency", "setting": "[3]; day 7 tonsillar organoids", "result": "without affecting"}, {"measurement": "T cell-B cell collaboration (humoral immune response)", "setting": "[3]; tonsil organoid system", "result": "blocks"}, {"measurement": "proliferation of activated CD4+ T cells (cell division, number of daughter cells)", "setting": "human CD4+ T cells", "result": "can inhibit; also recorded: Dose-dependent inhibition"}]}]}
